Experimental findings from patent publication US20040209929A1, “Fused heteroaryl carboxylic acids as PPAR agonists” (Agouron Pharmaceuticals, Inc., priority 2003, published 2004) are described below.

Where only a bound is given, the exact number is not on record here.

For this assay, the target named is T1, PPAR-γ (Homo sapiens, UniProt P37231).
T1 sequence (P37231 1-505): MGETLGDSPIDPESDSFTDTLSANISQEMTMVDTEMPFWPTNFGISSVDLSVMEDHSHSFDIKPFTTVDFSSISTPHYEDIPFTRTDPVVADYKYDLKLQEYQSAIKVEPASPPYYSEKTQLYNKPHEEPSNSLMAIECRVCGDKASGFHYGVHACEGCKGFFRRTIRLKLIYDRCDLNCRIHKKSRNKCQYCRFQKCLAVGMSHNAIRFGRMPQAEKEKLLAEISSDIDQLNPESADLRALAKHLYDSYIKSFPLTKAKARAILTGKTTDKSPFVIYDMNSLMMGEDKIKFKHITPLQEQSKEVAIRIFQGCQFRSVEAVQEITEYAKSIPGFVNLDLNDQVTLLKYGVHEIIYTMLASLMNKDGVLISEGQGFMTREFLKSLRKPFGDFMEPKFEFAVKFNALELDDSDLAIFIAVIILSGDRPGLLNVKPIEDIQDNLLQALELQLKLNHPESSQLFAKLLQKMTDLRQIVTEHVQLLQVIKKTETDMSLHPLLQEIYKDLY
The assay is described as follows: Scintillation Proximity Assay (SPA), displacement of 3H labeled darglitazone from PPAR-γ. Type of assay: binding. The note with it: PPAR protein on polylysine beads, read-out: PPAR-γKi. From the text:
Scintillatian Proximity Assay (SPA) Assays
In the SPA assay, 3H labeled darglitazone (for PPAR-γ) or GW^2331 (for PPAR-α) in bound to the PPAR protein captured on SPA polylysine beads and generates radioactive count signal that can be detected by TopCounts (Packard). The PPAR-bound 3H labeled ligand can be displaced by an unlabeled compound. The Ki of the compound can be then determined by the extent of displacement at various compound concentrations.
SPA polylysine beads, which can be purchased from Amersham Bioscience.
3H labeled Darglitazone for PPAR-γ.
Buffer—PBS, 10% glycerol, 14 mM beta-mercaptoethanol.
Consider `O=C(O)CCCn1ncc2c(OCc3nc(-c4ccccc4)oc3-c3ccccc3)cccc21` [Example 11, 4-{4-[(2,5-diphenyl-1,3-oxazol-4-yl)methoxy]-1H-indazol-1-yl}butanoic acid], for which the Ki was above 100 µM.

On to `Cc1oc(-c2ccccc2)nc1COc1ccc2cnn(CCC(=O)O)c2c1` [Example 13, 3-{6-[(5-methyl-2-phenyl-1,3-oxazol-4-yl)methoxy]-1H-indazol-1-yl}propanoic acid], for which the Ki was 41 µM.

`Cc1oc(-c2ccccc2)nc1CCOc1cccc2c1cnn2CC(=O)O` [Example 49]: the Ki is above 50 µM.

With `Cc1oc(-c2ccccc2)nc1CCn1ccc2c(OCC(=O)O)ccnc21` [Example 47], the Ki was above 50 µM.

Regarding `Cc1oc(-c2ccccc2)nc1CCOc1ccnc2c1ccn2CC(=O)O` [Example 29, {4-[2-(5-methyl-2-phenyl-1,3-oxazol-4-yl)ethoxy]-1H-pyrrolo[2,3-b]pyridin-1-yl}acetic acid], the Ki is above 50 µM.

As to `Cc1oc(-c2ccccc2)nc1CCOc1cccc2c1ccn2CC(CCC(=O)O)C(=O)O` (stereo not shown) [Example 51], the Ki is above 100 µM.

On to `O=C(O)Cn1ncc2c(OCc3nc(-c4ccccc4)oc3-c3ccccc3)cccc21` [Example 12, {4-[(2,5-diphenyl-1,3-oxazol-4-yl)methoxy]-1H-indazol-1-yl)acetic acid], for which the Ki worked out at 4 µM.

Turning to `Cc1oc(-c2ccccc2)nc1COc1cccc2c1cnn2CCCC(=O)O` [Example 15, 4-{4-[(5-methyl-2-phenyl-1,3-oxazol-4-yl)methoxy]-1H-indazol-1-yl}butanoic acid], the Ki amounted to 10 µM.

Turning to `Cc1oc(-c2ccccc2)nc1CCOc1cccc2c1ncn2CCC(=O)O` [Example 34, 3-{4-[2-(5-methyl-2-phenyl-1,3-oxazol-4-yl)ethoxy]-1H-benzimidazol-1-yl}propanoic acid], the Ki is above 50 µM.

Take `O=C(O)CCCn1ncc2ccc(OCc3nc(-c4ccccc4)oc3-c3ccccc3)cc21` [Example 10, 4-{6-[(2,5-diphenyl-1,3-oxazol-4-yl)methoxy]-1H-indazol-1-yl}butanoic acid]: the Ki was above 100 µM.

Regarding `Cc1oc(-c2ccccc2)nc1COc1cccc2c1cnn2CC(=O)O` [Example 16, {4-[(5-methyl-2-phenyl-1,3-oxazol-4-yl)methoxy]-1H-indazol-1-yl}acetic acid], the Ki is above 100 µM.

For `Cc1oc(-c2ccccc2)nc1COc1cccc2c1ccn2CCCC(=O)O` [Example 55], the Ki was above 100 µM.

With `Cc1oc(-c2ccccc2)nc1CCCn1ncc2c(OC(C)(C)C(=O)O)cccc21` [Example 33, 2-methyl-2-({1-[3-(5-methyl-2-phenyl-1,3-oxazol-4-yl)propyl]-1H-indazol-4-yl}oxy)propanoic acid], the Ki turned out to be 7 µM.

For `Cc1oc(-c2ccccc2)nc1CCOc1cccc2c1c(Cl)cn2CCC(=O)O` [Example 50], the Ki came to 4.9 µM.

`Cc1oc(-c2ccccc2)nc1CCOc1cccc2c1ccn2CC(=O)O` [Example 48]: the Ki turned out to be 30 µM.

`Cc1oc(-c2ccccc2)nc1COc1ccc2cnn(CC(=O)O)c2c1` [Example 4, {6-[(5-methyl-2-phenyl-1,3-oxazol-4-yl)methoxy]-1H-indazol-1-yl}acetic acid]: the Ki was above 50 µM.

As to `Cc1oc(-c2ccccc2)nc1CCOc1ccc2cnn(CC(=O)O)c2c1` [Example 20, {6-[2-(5-methyl-2-phenyl-1,3-oxazol-4-yl)ethoxy]-1H-indazol-1-yl}acetic acid], the Ki is above 50 µM.

For `Cc1oc(-c2ccccc2)nc1CCCOc1cccc2c1cnn2CCCC(=O)O` [Example 23, 4-{4-[3-(5-methyl-2-phenyl-1,3-oxazol-4-yl)propoxy]-1H-indazol-1-yl}butanoic acid], the Ki was above 50 µM.

For `O=C(O)CCn1ncc2c(OCc3nc(-c4ccccc4)oc3-c3ccccc3)cccc21` [Example 14, 3-{4-[(2,5-diphenyl-1,3-oxazol-4-yl)methoxy]-1H-indazol-1-yl}propanoic acid], the Ki was determined as 3.7 µM.

In the case of `Cc1oc(-c2ccccc2)nc1CCOc1cccc2c1c(C(=O)C(F)(F)F)cn2CCC(=O)O` [Example 44], the Ki came to 19 µM.

With `Cc1oc(-c2ccccc2)nc1CCOc1ccnc2c(CCC(=O)O)cccc12` [Example 53], the Ki came to 8.5 µM.

As for `Cc1oc(-c2ccccc2)nc1CCOc1ccc2cnn(CCCC(=O)O)c2c1` [Example 22, 4-{6-[2-(5-methyl-2-phenyl-1,3-oxazol-4-yl)ethoxy]-1H-indazol-1-yl}butanoic acid], the Ki was above 50 µM.

Consider `Cc1oc(-c2ccccc2)nc1CCOc1ccc2cnn(CCC(=O)O)c2c1` [Example 21, 3-{6-[2-(5-methyl-2-phenyl-1,3-oxazol-4-yl)ethoxy]-1H-indazol-1-yl}propanoic acid], for which the Ki is above 50 µM.

In the case of `Cc1oc(-c2ccccc2)nc1CCOc1cccc2c1ccn2CCCC(=O)O` [Example 54], the Ki was determined as 16 µM.

In the case of `O=C(O)Cn1ncc2ccc(OCc3nc(-c4ccccc4)oc3-c3ccccc3)cc21` [Example 7, {6-[(2,5-diphenyl-1,3-oxazol-4-yl)methoxy]-1H-indazol-1-yl}acetic acid], the Ki was 6.9 µM.

For the compound `Cc1oc(-c2ccccc2)nc1CCNc1ccnc2c1ccn2CCC(=O)O` [Example 46], the Ki is 0.58 µM.

Consider `Cc1oc(-c2ccccc2)nc1CCCOc1cccc2c1cnn2CC(=O)O` [Example 25, {4-[3-(5-methyl-2-phenyl-1,3-oxazol-4-yl)propoxy]-1H-indazol-1-yl}acetic acid], for which the Ki was above 50 µM.

As for `Cc1oc(-c2ccccc2)nc1CCCOc1cccc2c1cnn2CCC(=O)O` [Example 27, 3-{4-[3-(5-methyl-2-phenyl-1,3-oxazol-4-yl)propoxy]-1H-indazol-1-yl}propanoic acid], the Ki is above 50 µM.

`Cc1oc(-c2ccccc2)nc1COc1ccc2cnn(CCCC(=O)O)c2c1` [Example 3, 4-{6-[(5-methyl-2-phenyl-1,3-oxazol-4-yl)methoxy]-1H-indazol-1-yl}butanoic acid]: the Ki was above 100 µM.

With `Cc1oc(-c2ccccc2)nc1CCOc1cccc2c1cnn2CCC(=O)O` [Example 1, 3-{4-[2-(5-methyl-2-phenyl-1,3-oxazol-4-yl)ethoxy]-1H-indazol-1-yl}propanoic acid], the Ki is 0.58 µM.

As for `O=C(O)CCn1ncc2ccc(OCc3nc(-c4ccccc4)oc3-c3ccccc3)cc21` [Example 6, 3-{6-[(2,5-diphenyl-1,3-oxazol-4-yl)methoxy]-1H-indazol-1-yl}propanoic acid], the Ki stood at 1.8 µM.

As to `Cc1oc(-c2ccccc2)nc1CCOc1cccc2c1cnn2CCCC(=O)O` [Example 18], the Ki is above 50 µM.

Consider `Cc1oc(-c2ccccc2)nc1COc1cccc2c1cnn2CCC(=O)O` [Example 17, 3-{4-[(5-methyl-2-phenyl-1,3-oxazol-4-yl)methoxy]-1H-indazol-1-yl}propanoic acid], for which the Ki turned out to be 4 µM.

As to `Cc1oc(-c2ccccc2)nc1CCOc1ccnc2c1ccn2CCC(=O)O` [Example 45], the Ki turned out to be 9 µM.
